These results are taken from patent US9962354B2, “Method and composition for bacterial or fungal suppression on skin” (priority 2009, dated 2018).

In assay [1] the test system is staphylococcus aureus (ATCC 6366). Put plainly: 27 hour kinetic growth assay using a redox active dye. Format: cell-based. The note with it: 25 uL test material in TSB, 27 hour kinetic assay. As for the experimental part: (§1) Conjugated linoleic acid (80%) and conjugated linoleic acid diglyceride, containing both trans and cis isomers, were used to show persisting reduction of bacterial growth over several hours. Each measure was accomplished in separate wells. Each well received a unique combination of the following, including controls. Conjugated linoleic acid 80% and conjugated linoleic acid diglyceride, 25 uL were each separately added to Trypticase Soy Broth (TSB). To each solution was added 75 uL TSB plus 50 uL staphylococcus aureus (ATCC 6366) or pseudomonas aeruginosa (ATCC 15442). This was then entered into a 27 hour kinetic assay using a redox active dye to monitor growth. Appropriate controls were simultaneously run.

Assay [2] deals with pseudomonas aeruginosa (ATCC 15442). The description is as above. The note with it: 25 uL test material in TSB, 27 hour kinetic assay. Format: cell-based. As for the experimental part: as §1
A short description of assay [3]: direct application of oil to skin with acne. Format: in vivo. To be noted: applied twice daily directly to skin; after 24 hours. An excerpt: CLA free fatty acid oil was applied twice daily directly to skin with acne.

As for “conjugated linoleic acid diglyceride [conjugated linoleic diglyceride]”, in assay [1], the “reduction in bacterial growth beginning at” value stood at 30 min and the “reduction in bacterial growth sustained for” value was determined as 20 h. Besides, in assay [2], the “reduction in bacterial growth beginning at” value turned out to be 200 min and the “reduction in bacterial growth sustained for” value was 27 h.
Take “conjugated linoleic acid [conjugated linoleic free fatty acid]”: the “size and redness of the acne” value in assay [3] is “substantial reduction in the size and redness of the acne”. For the same substance, the “reduction in bacterial growth beginning at” value in assay [1] was determined as 30 min; in assay [2], 200 min. The figures for the “reduction in bacterial growth sustained for” value in assay [1] and in assay [2] were 20 h and 27 h, respectively.
